What all share (format): biochemical
The target of one assay is T1, JAK3 (Homo sapiens, UniProt P52333).
T1 construct: 5 μl of catalytic domain recombinant Kinase enzyme+Tyr peptide substrate (Invitrogen, CA); purchased Invitrogen
Kind of assay: Z'-LYTE kinase assay JAK3. In outline:
(§1)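 In duplicate wells, each test molecule (1% final DMSO) is incubated with recombinant kinase catalytic domain, Tyr6 peptide substrate and ATP for one hour at room temperature; a site-specific protease is then added for another hour before fluorescence reading.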

The target of another assay is T2, JAK2 (Homo sapiens, UniProt O60674).
T2 construct: 5 μl of catalytic domain recombinant Kinase enzyme+Tyr peptide substrate (Invitrogen, CA); purchased Invitrogen
T2 sequence (O60674 849-1124 limits assumed): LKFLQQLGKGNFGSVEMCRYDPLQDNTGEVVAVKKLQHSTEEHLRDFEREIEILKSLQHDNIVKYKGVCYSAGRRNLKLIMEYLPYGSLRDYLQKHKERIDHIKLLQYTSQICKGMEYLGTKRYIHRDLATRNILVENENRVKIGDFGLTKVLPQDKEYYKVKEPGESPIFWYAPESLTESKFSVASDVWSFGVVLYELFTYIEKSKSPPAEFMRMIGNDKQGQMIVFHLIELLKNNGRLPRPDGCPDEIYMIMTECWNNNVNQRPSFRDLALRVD
Kind of assay: Z'-LYTE kinase assay JAK2. In outline:
as §1

Another assay concerns the target T3, JAK1 (Homo sapiens, UniProt P23458).
T3 construct: 5 μl of catalytic domain recombinant Kinase enzyme+Tyr peptide substrate (Invitrogen, CA); purchased Invitrogen
Kind of assay: Z'-LYTE kinase assay JAK1. In outline:
as §1

In the next assay the target is T4, TYK2 (Homo sapiens, UniProt P29597).
T4 construct: 5 μl of catalytic domain recombinant Kinase enzyme+Tyr peptide substrate (Invitrogen, CA); purchased Invitrogen
T4 sequence (P29597 897-1176 limits assumed): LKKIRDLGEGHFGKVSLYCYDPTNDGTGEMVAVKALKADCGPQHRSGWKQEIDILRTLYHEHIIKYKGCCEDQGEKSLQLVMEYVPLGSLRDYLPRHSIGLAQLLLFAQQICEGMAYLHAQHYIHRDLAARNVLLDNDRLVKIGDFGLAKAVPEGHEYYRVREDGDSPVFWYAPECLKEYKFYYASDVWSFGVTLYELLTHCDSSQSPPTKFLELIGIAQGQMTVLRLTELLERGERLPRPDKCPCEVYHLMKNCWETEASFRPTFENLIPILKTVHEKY
Kind of assay: Z'-LYTE kinase assay TYK2. The protocol:
JAK and TYK2 tyrosine phosphorylation activity is measured using the Z′-LYTE™ Technology developed by Invitrogen Corporation (Carlsbad, Calif.). For JAK1, JAK2 and JAK3 the Z′-LYTE™ Kinase Assay Kit-Tyr6 Peptide (part number PV4122) was used. For TYK2 the Z′-LYTE™ Kinase Assay Kit-Tyr6 Peptide (part number PV3192) was used. The Z′-LYTE™ biochemical assay employs a fluorescence resonance energy transfer (FRET) coupled-enzyme format and is based on the differential sensitivity of phosphorylated and non-phosphorylated peptides to proteolitic cleavage. The assay uses a synthetic peptide substrate that is labelled with a donor fluorophore (coumarin) and an acceptor fluorophore (fluorescein) that make up a FRET pair. In the primary reaction (the Kinase Reaction), the kinase transfers the γ-phosphate of ATP to a single tyrosine residue on the substrate, while the presence of a kinase inhibitor in the primary reaction suppresses phosphorylation. In the secondary reaction (the Development Reaction), a site-specific protease (the Development Reagent) is added. The development buffer quenches the Kinase Reaction, while the protease recognizes and cleaves non-phosphorylated Z′-LYTE™ peptide substrate. Cleavage disrupts FRET between the donor and acceptor fluorophores on the non-phosphoryleted substrate, while uncleaved, phosphorylated substrate maintains FRET.
To test the ability of candidate molecules to inhibit JAK tyrosine phosphorylation activity, molecules are reconstituted in 100% DMSO and serially diluted 1:10 in polypropylene v-bottom microtiter plates. The candidate molecules are then diluted 1:25 into kinase buffer and 2.5 μl transferred into duplicate wells of a 384 well low volume black microtiter assay plate (Corning, USA). The final DMSO concentration in the assay is 1%. The kinase reaction contains 2.5 μl of a candidate molecule, 5 μl of catalytic domain recombinant Kinase enzyme+Tyr peptide substrate (Invitrogen, CA) and 2.5 μl ATP (Invitrogen, CA). The kinase reaction is allowed to procede for 1 hour at room temperature. The protease reaction is initiated by the addition of 5 μl Development Reagent (Invitrogen, CA). After 1 hour incubation at room temperature the fluorescence is measured using a FlexStation plate reader (Molecular Devices, Sunnyvale, Calif.). The reader settings used are as follows: Fluorescence mode, endpoint, top read, excitation 400 nm, emission 445 nm and 520 nm, Auto Cutoff 435 nm and 515 nm, PMT sensitivity high, 6 reads per well Inhibition of JAK kinase activity is calculated as the percent phosphorylation of substrate in the presence of inhibitor compared to the percent phosphorylation of substrate in the absence of inhibitor. IC50's were derived using Xlfit 4.3 (IDBS, UK), 4 parameter logistic model 205: Y=(A+4B-A)/(1+((C/x)AD)))).

A value given as a limit tells only on which side of the number the result lay.

T1 sequence (P52333 822-1111 limits assumed): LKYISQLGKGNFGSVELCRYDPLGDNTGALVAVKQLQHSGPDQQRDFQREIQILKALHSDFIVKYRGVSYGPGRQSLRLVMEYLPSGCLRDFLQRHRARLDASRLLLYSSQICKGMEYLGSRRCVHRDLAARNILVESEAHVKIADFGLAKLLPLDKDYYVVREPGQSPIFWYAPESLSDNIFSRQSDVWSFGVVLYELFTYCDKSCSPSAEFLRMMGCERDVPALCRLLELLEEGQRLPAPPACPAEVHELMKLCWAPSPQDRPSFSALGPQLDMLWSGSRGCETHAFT
T3 sequence (P23458 875-1153 limits assumed): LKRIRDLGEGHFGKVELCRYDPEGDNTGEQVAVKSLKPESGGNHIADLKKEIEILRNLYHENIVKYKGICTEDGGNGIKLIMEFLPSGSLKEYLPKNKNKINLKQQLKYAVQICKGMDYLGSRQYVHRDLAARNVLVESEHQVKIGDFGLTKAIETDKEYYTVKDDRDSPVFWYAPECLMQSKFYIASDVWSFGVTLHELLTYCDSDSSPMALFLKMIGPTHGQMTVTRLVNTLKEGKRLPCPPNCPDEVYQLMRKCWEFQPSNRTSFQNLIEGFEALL

Regarding `CCC(=O)N1CCC(c2ccc(Nc3cc(NCc4cccc(F)c4F)c(C(N)=O)cn3)cc2)CC1` [Example 196, 4-(2,3-difluorobenzylamino)-6-(4-(1-propionylpiperidin-4-yl)phenylamino)nicotinamide], the IC50 against JAK3 fell in the range of 1 to 10 nM; against JAK2, 10 to 100 nM; against JAK1 it was 100 to 1000 nM; at TYK2, 100 to 1000 nM.
Regarding `CCC(=O)N1CCC(c2ccc(Nc3cc(NCc4cccs4)c(C(N)=O)cn3)cc2)CC1` [Example 197, 6-(4-(1-propionylpiperidin-4-yl)phenylamino)-4-(thiophen-2-ylmethylamino)nicotinamide], the half-inhibitory concentration (IC50) at JAK3 was in the range of 1 to 10 nM; at JAK2 it was 100 to 1000 nM; on JAK1, 100 to 1000 nM; on TYK2, 100 to 1000 nM.
For `CCC(=O)N1CCC(c2ccc(Nc3cc(NCc4ccccc4)c(C(N)=O)cn3)cc2)CC1` [Example 198, 4-(benzylamino)-6-(4-(1-propionylpiperidin-4-yl)phenylamino)nicotinamide], the IC50 was 1 to 10 nM at JAK3, 100 to 1000 nM against JAK2, > 1000 nM at JAK1 and 100 to 1000 nM against TYK2.
For `CCC(=O)N1CCC(c2ccc(Nc3cc(N[C@H](C)c4ccccc4)c(C(N)=O)cn3)cc2)CC1` [Example 199, (R)-4-(1-phenylethylamino)-6-(4-(1-propionylpiperidin-4-yl)phenylamino)nicotinamide], the half-maximal inhibitory concentration (IC50) is 10 to 100 nM against JAK3, 100 to 1000 nM on JAK2, > 1000 nM against JAK1 and > 1000 nM at TYK2.
Turning to `CC(=O)Nc1cccc(Nc2cc(NCc3cccs3)c(C(N)=O)cn2)c1` [Example 222, 6-(3-acetamidophenylamino)-4-(thiophen-2-ylmethylamino)nicotinamide], the 50% inhibitory concentration (IC50) at JAK3 fell in the range of 1 to 10 nM; against JAK2 it was 100 to 1000 nM; against JAK1, 100 to 1000 nM; against TYK2, 10 to 100 nM.
As to `CC(=O)N1CCN(c2ccc(Nc3cc(NC(C)C)c(C(N)=O)cn3)cc2)CC1` [Example 234, 6-(4-(4-acetylpiperazin-1-yl)phenylamino)-4-(isopropylamino)nicotinamide], the IC50 is 100 to 1000 nM against JAK3, > 1000 nM on JAK2, > 1000 nM against JAK1 and 100 to 1000 nM at TYK2.
For the molecule `CC(=O)N1CCN(c2ccc(Nc3cc(NCC(C)C)c(C(N)=O)cn3)cc2)CC1` [Example 235, 6-(4-(4-acetylpiperazin-1-yl)phenylamino)-4-(isobutylamino)nicotinamide], the IC50 at JAK3 is 10 to 100 nM; against JAK2, 100 to 1000 nM; against JAK1, 100 to 1000 nM; on TYK2, 10 to 100 nM.
Regarding `CC(=O)N1CCN(c2ccc(Nc3cc(NCC4CC4)c(C(N)=O)cn3)cc2)CC1` [Example 238, 6-(4-(4-acetylpiperazin-1-yl)phenylamino)-4-(cyclopropylmethylamino)nicotinamide], the concentration for half-maximal inhibition (IC50) against JAK3 was 100 to 1000 nM; against JAK2 it was 100 to 1000 nM; at JAK1, > 1000 nM; against TYK2 it was 100 to 1000 nM.
On to `CC(=O)N1CCN(c2ccc(Nc3cc(NC4CCCC4)c(C(N)=O)cn3)cc2)CC1` [Example 239, 6-(4-(4-acetylpiperazin-1-yl)phenylamino)-4-(cyclopentylamino)nicotinamide], for which the concentration for half-maximal inhibition (IC50) against JAK3 was in the range of 10 to 100 nM; against JAK2 it was 100 to 1000 nM; at JAK1 it was 100 to 1000 nM; against TYK2, 10 to 100 nM.
As to `CC(=O)N1CCN(c2ccc(Nc3cc(NCC4CCC4)c(C(N)=O)cn3)cc2)CC1` [Example 243, 6-(4-(4-acetylpiperazin-1-yl)phenylamino)-4-(cyclobutylmethylamino)nicotinamide], the IC50 against JAK3 lay within 10 to 100 nM; against JAK2, 100 to 1000 nM; at JAK1 it was 100 to 1000 nM; against TYK2 it was 10 to 100 nM.
`CC(=O)N1CCN(c2ccc(Nc3cc(NCc4ccc(F)cc4)c(C(N)=O)cn3)cc2)CC1` [Example 252, 6-(4-(4-acetylpiperazin-1-yl)phenylamino)-4-(4-fluorobenzylamino)nicotinamide]: the IC50 against JAK3 is 10 to 100 nM; on JAK2, 100 to 1000 nM; at JAK1, > 1000 nM; against TYK2, > 1000 nM.
Consider `CC(=O)N1CCN(c2ccc(Nc3cc(NC4Cc5ccccc5C4)c(C(N)=O)cn3)cc2)CC1` [Example 253, 6-(4-(4-acetylpiperazin-1-yl)phenylamino)-4-(2,3-dihydro-1H-inden-2-ylamino)nicotinamide], for which the concentration for half-maximal inhibition (IC50) on JAK3 is 100 to 1000 nM; at JAK2, 100 to 1000 nM; against JAK1, > 1000 nM; against TYK2 it was 100 to 1000 nM.
Take `CC(=O)N1CCN(c2ccc(Nc3cc(NCc4ccc5c(c4)OCO5)c(C(N)=O)cn3)cc2)CC1` [Example 254, 6-(4-(4-acetylpiperazin-1-yl)phenylamino)-4-(benzo[d][1,3]dioxol-5-ylmethylamino)nicotinamide]: the half-maximal inhibitory concentration (IC50) against JAK3 is 10 to 100 nM; on JAK2, 100 to 1000 nM; against JAK1 it was > 1000 nM; against TYK2 it was > 1000 nM.
`CC(=O)N1CCC[C@H](CNc2cc(Nc3ccc(C(=O)N4CCCC4)cc3)ncc2C(N)=O)C1` [Example 265, (R)-4-((1-acetylpiperidin-3-yl)methylamino)-6-(4-(pyrrolidine-1-carbonyl)phenylamino)nicotinamide]: the IC50 on JAK3 was 10 to 100 nM; on JAK2, 100 to 1000 nM; against JAK1 it was > 1000 nM; on TYK2, 100 to 1000 nM.
In the case of `Cc1cc(Nc2cc(NCc3cncc(F)c3)c(C(N)=O)cn2)ccc1C(=O)N(C)C` [Example 297], the concentration for half-maximal inhibition (IC50) fell in the range of 1 to 10 nM against JAK3, 10 to 100 nM against JAK2, 100 to 1000 nM against JAK1 and 100 to 1000 nM on TYK2.
On to `NC(=O)c1cnc(Nc2cccc(OCCN3CCCC3)c2)cc1NC1(c2ccccc2)CC1` [Example 363, 4-(1-phenylcyclopropylamino)-6-(3-(2-(pyrrolidin-1-yl)ethoxy)phenylamino)nicotinamide], for which the IC50 against JAK3 is 10 to 100 nM; on JAK2, 100 to 1000 nM; against JAK1, > 1000 nM; at TYK2, > 1000 nM.
Regarding `CS(=O)(=O)N1CCN(c2ccc(Nc3cc(NC4(c5ccccc5)CC4)c(C(N)=O)cn3)cc2)CC1` [Example 364, 6-(4-(4-(methylsufonly)piperazin-1-yl)phenylamino)-4-(1-phenylcyclopropylamino)nicotinamide], the half-inhibitory concentration (IC50) is 10 to 100 nM at JAK3, 100 to 1000 nM on JAK2, > 1000 nM against JAK1 and > 1000 nM on TYK2.
For `CN(C)C(=O)COc1cccc(Nc2cc(NC3(c4ccccc4)CC3)c(C(N)=O)cn2)c1` [Example 365, 6-(3-(2-(dimethylamino)-2-oxoethoxy)phenylamino)-4-(1-phenylcyclopropylamino)nicotinamide], the IC50 on JAK3 was 10 to 100 nM; against JAK2, > 1000 nM; against JAK1 it was > 1000 nM; at TYK2, > 1000 nM.
On to `CN(C)C(=O)COc1ccc(Nc2cc(NC3(c4ccccc4)CC3)c(C(N)=O)cn2)cc1` [Example 366, 6-(4-(2-(dimethylamino)-2-oxoethoxy)phenylamino)-4-(1-phenylcyclopropylamino)nicotinamide], for which the IC50 at JAK3 was 10 to 100 nM; against JAK2 it was 100 to 1000 nM; at JAK1, > 1000 nM; against TYK2, > 1000 nM.
`NC(=O)c1cnc(Nc2cccc(N3CCNCC3)c2)cc1NC1(c2ccccc2)CC1` [Example 367, 4-(1-phenylcyclopropylamino)-6-(3-(piperazin-1-yl)phenylamino)nicotinamide]: the 50% inhibitory concentration (IC50) against JAK3 was 10 to 100 nM; at JAK2, 100 to 1000 nM; on JAK1, > 1000 nM; against TYK2, > 1000 nM.

One may read the IC50 as the concentration at which inhibition is half-maximal.

For the origin of these results see US20150353495A1 (PORTOLA PHARMACEUTICALS, INC., priority 2010, published 2015).
